Data set [1] is described as follows: Pharmacokinetics in mice. It is filed as in vivo. To be noted: mouse; for half-life / Cmax / AUC(0-t): plasma; for AUC(0-t): read-out: AUC(0–24). How it is done: Plasma samples and tumor homogenates were mixed with the precipitant solution (acetonitrile containing internal standard). The supernatant (180 µL) was transferred in a 96-well plate and 5 µL were injected. EVT801 and its main metabolite were quantified by LC-MS/MS following standard conditions.
Quality control (QC) samples and calibration samples were prepared daily by spiking mouse plasma and tumor homogenates with working solutions prepared from independent weighing. The calibration curve was calculated from calibration levels at 1, 2.5, 5, 10, 25, 50, 100, 200, 500, 1000 and 2000 ng/mL. A variation of ± 20 % versus the nominal concentrations was used as criteria for qualification of samples; at least 75 % of all standards needed to be within this window, and at least 6 concentration values within tis window were used for quantification. The concentrations for QC samples were 5, 50, 150, 450 and 1500 ng/mL. At least 66 % of all QC samples, and at least 50 % of QC samples at a given concentration were within the ± 20 % window. Quadratic regressions were applied, not forced through the origin, and weighted by 1/x (with R^2 > 0.98). The lower limit of quantification for both compounds was set to 1 ng/mL for plasma and to 3 ng/g for tumor samples.

The test system of data set [2] is tubule formation. In words: Mouse aortic ring assay stimulated by a 4T1 tumor fragment. Format: cell-based. As to conditions: 300 nM, day 8. As for the experimental part:
Neo-angiogenesis was studied in vitro by culturing rings of mouse thoracic aorta in 3-dimensional collagen gels, as previously described (2), but the mouse serum was replaced by a piece of 4T1 tumor. Briefly, 1 mm-long aortic ring-shaped fragments of 9-week old C57Bl/6J mice, and 1 mm^3 4T1 tumor pieces resected 21 days after orthotopic injection in mammary fat pad of BALB/c mice were embedded in a rat tail interstitial collagen gel (1.5 mg/mL). It was prepared by mixing 7.5 volumes of 2 mg/mL collagen (Collagen R, Serva), 1 volume of 10 x minimum essential medium (MEM, Life Technologies Ltd.), 1.5 volumes of NaHCO3 (15.6 mg/mL), and 0.1 volume 1 M NaOH to adjust the pH to 7.4. The collagen gels containing the aortic rings were polymerized in cylindrical agarose wells, and kept in triplicate at 37 °C in 60 mm diameter Petri dishes (bacteriological polystyrene; Falcon, Becton Dickinson). Each dish contained 6 mL of MCDB131 (Life Technologies Ltd.) supplemented with 25 mM NaHCO3, 1 % glutamine, 100 U/mL penicillin, and 100 µg/mL streptomycin. The cultures were kept at 37 °C in a humidified environment for 8 days and examined every other day with a Nikon microscope at appropriate magnification. […] Quantification of pseudo-tubules was performed at day 8 using an automated computer-assisted image analysis system (Morpho Expert V2.50, Explora Nova, La Rochelle, France). […]

Data set [3] deals with ERK1/2 phosphorylation. Nature of the data set: VEGF-C-induced ERK1/2 phosphorylation in hLMVEC. Format: cell-based. To be noted: Homo sapiens, read-out: IC50, inhibition of VEGF-C-induced ERK1/2 phosphorylation. As for the experimental part:
hLMVECs were plated in 6-well tissue culture plates at a density of 2 x 10^5 cells for 48 h. Cells were then serum deprived for 2 h and either stimulated or mock stimulated for 10 min with VEGFC (500 ng/mL) in the presence or absence of EVT801. Then, cells were lysed and subjected to phospho-MAPK array or to phospho-ERK ELISA according to manufacturer’s instructions.

The test system of data set [4] is DEN-induced liver tumor. In words: N-diethylnitrosamine-induced hepatocarcinoma mouse model. To be noted: daily doses of 100 mg/kg for 2 months. It is filed as in vivo, mice. As for the experimental part:
After weighing, 38 male C3/H mice received a 10 mg/kg dose of N-diethylnitrosamine (DEN) intraperitoneally, whereas a group of 5 animals was kept without DEN injection as control group. After 12 months, mice that received DEN injection were randomized by weight in two groups of each 19 animals. The mice were dosed daily orally for 2 months either with EVT801 or vehicle. On the day of termination, mice treated with EVT801 received a last dose of 30 mg/kg to take blood and tumor samples for compound concentration determination. After incision of the peritoneal cavity, blood was taken from the vena cava. Following excision and weighing of the liver, the number of tumors per liver was counted. The tumor burden was calculated as the sum of individual tumor volumes for each mouse. No blood sampling was performed on control and vehicle groups. Plasma and tumor samples were stored at −20°C until analysis. Concentration of EVT801 was determined by LC/MS-MS.

Data set [5] relates to CT26 tumors. In words: CT26 ectopic tumor mouse model. It is filed as in vivo, mice. How it is done: BALB/c mice were anesthetized with ketamine (100 mg/kg) combined with xylazine (10 mg/kg) via intraperitoneal injection. A total of 5 × 10^4 CT26 tumor cells were suspended in 200 μL of Matrigel matrix, and then inoculated in the flank of legs. After implantation, mice were randomly separated into two groups. One group received EVT801 by oral gavage and anti-PD-1 by intraperitoneal injection in a volume of 10 mL/kg, whereas the mice in the second group served as control, and were injected with IgG isotype. PD-1 was injected at day 11, day 14, and day 18 after CT26 inoculation. EVT801 was administrated daily by oral route at 30 mg/kg from day 11 until day 21. Tumor volume was measured on days 11, 13, 15, 18, 19 and 21 following tumor cell injection. The selected groups received vehicle or EVT801 orally in a volume of 10 mL/kg. At day 21, 60 mg/kg hypoxyprobe was injected 30 minutes before sacrifice of mice. The tumors were embedded in paraffin for histology studies.

Data set [6] has as its system ERK phosphorylation. Nature of the data set: Immunoblot of phosphorylated ERK in NCI-H1703 cells. It is filed as cell-based, human. As to conditions: 1 μmol/L. How it is done: For immunoblotting, 2 x 10^5 cells were scraped and lysed with RIPA lysis buffer (Sigma, R0278), supplemented with protease inhibitor cocktail (Ozyme, 5872S). After separation by SDS-PAGE, proteins were transferred to PVDF membranes. Membranes were blocked with 5 % milk in TBS-T for saturation step and incubated with phosphorylated ERK (CellSignaling, 4377, 1:1000) or GAPDH (CellSignaling, 5174, 1:1000) antibodies overnight, followed by an anti-mouse IgG, secondary antibody HRP linked (CellSignaling, 7076, 1:2000) in antibodies buffer (TBS-Tween 0.05 %, 0.1 % BSA) for 2 h. Membranes were washed 3 x 10 min in TBS before adding chemiluminescent substrate (Supersignal West Pico Plus, 54580, ThermoFisher) and imaged by the Pxi6 station (Ozyme).

Read-outs that look alike come from different tables or passages of the source.

The values that follow come from paper PMC10035370, “Targeting Tumor Angiogenesis with the Selective VEGFR-3 Inhibitor EVT801 in Combination with Cancer Immunotherapy” (Cancer Research Communications, 2022).

Usually Cmax stands for the peak of the concentration-time curve.

As for `CCn1c(N)c(-c2ncc[nH]2)c(=O)c2ccc(C#C[C@@](C)(O)COC)nc21` [EVT801], the half-life in data set [1] (Balb/c, 30 mg/kg, Balb/c mice, 30 mg/kg, read-out: T1/2 in plasma (converted)) was 2.7 h; in data set [1] (Balb/c, 100 mg/kg, Balb/c mice, 100 mg/kg, read-out: T1/2 in plasma (converted)), 1.1 h; in data set [1] (Balb/c, 100 mg/kg, Balb/c with 4T1 tumor, 100 mg/kg for 2 weeks), 3.2 h; in data set [1] (SCID, 10 mg/kg, SCID mice with tumor, 10 mg/kg for 2 weeks, read-out: T1/2 in plasma (converted)) it was 0.9 h; in data set [1] (SCID, 30 mg/kg, SCID mice with tumor, 30 mg/kg for 2 weeks, read-out: T1/2 in plasma (converted)), 1.6 h. In addition, the Cmax worked out at 8940 ng/mL in data set [1] (oral, 100 mg/kg/day) and 8390 ng/mL in data set [1] (po, 30 mg/kg twice per day). Moreover, the AUC(0-t) turned out to be 22000 ng·h/mL in data set [1] (oral, 100 mg/kg/day) and 28000 ng·h/mL in data set [1] (po, 30 mg/kg twice per day). In addition, the Kp in data set [1] (Balb/c with 4T1 tumor, 100 mg/kg for 2 weeks, read-out: Tissue to plasma (AUC)) came to 0.88. Also, the “tubule formation (tubule length)” value in data set [2] is “prevents tumor-induced tubule formation almost completely”. Also, the IC50 in data set [3] is 13 nM. The “T/C ratio, tumor volume” value was determined as 22% in data set [4] and 55% in data set [5] (BALB/c mice, EVT801 30 mg/kg twice per day, anti-PD-1 twice per week, or both). The liver weight result in data set [4] is reported as “fully prevented the increase in liver weight”. In addition, in data set [5] (end of treatment, not statistically significant), the “reduction of hypoxyprobe-positive areas compared with vehicle” value came to 42%. In addition, in data set [6], the “reduction of ERK phosphorylation induced by VEGF-C and VEGF-D” value was “better than pazopanib”.
